pIC50: −log10 of the molar value.

In one test the target is T1, Ephrin type-B receptor 4 (Homo sapiens) (UniProt P54760).
T1 sequence (whole entry): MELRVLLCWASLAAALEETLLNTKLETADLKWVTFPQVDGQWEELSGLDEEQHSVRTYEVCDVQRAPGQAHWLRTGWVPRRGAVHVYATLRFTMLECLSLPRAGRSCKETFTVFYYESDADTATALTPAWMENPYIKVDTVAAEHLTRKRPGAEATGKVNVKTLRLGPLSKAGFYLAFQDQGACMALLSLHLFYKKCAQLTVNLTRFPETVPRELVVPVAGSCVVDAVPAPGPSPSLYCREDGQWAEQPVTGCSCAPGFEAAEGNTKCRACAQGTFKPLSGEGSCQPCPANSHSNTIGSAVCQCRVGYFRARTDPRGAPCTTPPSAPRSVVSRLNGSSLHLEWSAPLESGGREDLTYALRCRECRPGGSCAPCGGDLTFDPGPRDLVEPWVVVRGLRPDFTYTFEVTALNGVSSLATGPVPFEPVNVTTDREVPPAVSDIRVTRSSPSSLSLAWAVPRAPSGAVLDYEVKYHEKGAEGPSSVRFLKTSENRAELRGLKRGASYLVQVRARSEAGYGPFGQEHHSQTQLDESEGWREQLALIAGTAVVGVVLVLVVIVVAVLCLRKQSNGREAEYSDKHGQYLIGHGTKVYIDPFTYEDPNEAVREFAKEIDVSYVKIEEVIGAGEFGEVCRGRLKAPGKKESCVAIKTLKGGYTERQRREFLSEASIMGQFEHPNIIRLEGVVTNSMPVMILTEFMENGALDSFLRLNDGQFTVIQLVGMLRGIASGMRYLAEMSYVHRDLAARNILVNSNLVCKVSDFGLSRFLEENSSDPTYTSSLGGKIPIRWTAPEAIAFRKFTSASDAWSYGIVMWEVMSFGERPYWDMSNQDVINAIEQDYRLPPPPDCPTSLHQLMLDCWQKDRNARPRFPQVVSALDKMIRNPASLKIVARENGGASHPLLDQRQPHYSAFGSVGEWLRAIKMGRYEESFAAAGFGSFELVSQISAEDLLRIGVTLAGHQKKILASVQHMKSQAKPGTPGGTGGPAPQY
Nature of the test: Inhibition of EphB4 at 1 uM after 1 hr.
A word on the inhibition: it is how much of the control response was suppressed. Low values mean little suppression, high ones strong suppression. For the compound `O=C(Nc1cccc(-c2cn3ccnc3c(NCc3ccncc3)n2)c1)Nc1ccccc1F`, the inhibition was determined as 22%.
Same read-out and setting: under `O=C(Nc1cccc(-c2cn3ccnc3c(Nc3cccnc3)n2)c1)Nc1cccc(C(F)(F)F)c1` stands 1%.
`COc1ccc(NC(=O)Nc2cccc(-c3cn4ccnc4c(NCc4ccncc4)n3)c2)cc1` gave an inhibition of 10%.
As for `O=C(Nc1ccccc1)Nc1cccc(-c2cn3ccnc3c(NCc3ccncc3)n2)c1`, the inhibition worked out at 10%.
Still for that read-out and setting: under `CSc1ccccc1NC(=O)Nc1cccc(-c2cn3ccnc3c(NCc3ccncc3)n2)c1` stands 63%.
As to `O=C(Nc1cccc(-c2cn3ccnc3c(NCc3ccncc3)n2)c1)Nc1ccccc1Oc1ccccc1`, the inhibition was determined as 22%.
Same read-out and setting: under `CCc1ccc(NC(=O)Nc2cccc(-c3cn4ccnc4c(NCc4ccncc4)n3)c2)cc1` stands 10%; under `O=C(Nc1cccc(-c2cn3ccnc3c(NCc3ccncc3)n2)c1)Nc1ccccc1C(F)(F)F`, 41%.

A further test concerns the target T2, Ephrin type-B receptor 4 (Homo sapiens, UniProt P54760).
T2 sequence (P54760 whole entry): T1 sequence (whole entry)
Nature of the test: Inhibition of EphB4 after 1 hr.
What is called pIC50 is −log10 of the IC50, conventionally taken in molar units. The compound `O=C(Nc1cccc(-c2cn3ccnc3c(NCc3ccncc3)n2)c1)Nc1cc(Cl)ccc1Cl` had a pIC50 of 7.00.
`COc1ccc(C#N)cc1NC(=O)Nc1cccc(-c2cn3ccnc3c(NCc3ccncc3)n2)c1` gave a pIC50 of 6.90.
The compound `O=C(NCc1cccc(C(F)(F)F)c1)c1cccc(-c2cn3ccnc3c(NCc3ccncc3)n2)c1` had a pIC50 of 4.95.
The same measure, in the same setting: under `O=C(Nc1cccc(-c2cn3ccnc3c(NCc3ccncc3)n2)c1)Nc1ccccc1Cl` stands 5.54; under `O=C(Nc1ccc(Cl)cc1)Nc1cccc(-c2cn3ccnc3c(NCc3ccncc3)n2)c1`, 5.34; under `O=C(Nc1cccc(-c2cn3ccnc3c(NCc3ccccc3)n2)c1)Nc1cccc(C(F)(F)F)c1`, 4.30.
On the same count and under the same terms, under `COc1cc(OC)c(NC(=O)Nc2cccc(-c3cn4ccnc4c(NCc4ccncc4)n3)c2)cc1Cl` stands 6.40; under `O=C(Nc1ccc(-c2cn3ccnc3c(NCc3ccncc3)n2)cc1)Nc1cccc(C(F)(F)F)c1`, 4.30; under `N#Cc1cccc(NC(=O)Nc2cccc(-c3cn4ccnc4c(NCc4ccncc4)n3)c2)c1`, 5.72.
On the same count and under the same terms, under `COc1ccc(C)cc1NC(=O)Nc1cccc(-c2cn3ccnc3c(NCc3ccncc3)n2)c1` stands 7.11; under `O=C(Nc1cccc(-c2cn3ccnc3c(NCc3ccncc3)n2)c1)Nc1c(Cl)cccc1Cl`, 6.00; under `O=C(Nc1cccc(Oc2ccccc2)c1)Nc1cccc(-c2cn3ccnc3c(NCc3ccncc3)n2)c1`, 4.98.
Compound `Cc1ccc(NC(=O)Nc2cccc(-c3cn4ccnc4c(NCc4ccncc4)n3)c2)cc1` had a pIC50 of 5.10.
Same read-out and setting: under `O=C(NCc1cccc(C(F)(F)F)c1)Nc1cccc(-c2cn3ccnc3c(NCc3ccncc3)n2)c1` stands 5.68.
Still for that read-out and setting: under `O=C(Nc1cccc(-c2cn3ccnc3c(OCc3ccncc3)n2)c1)Nc1cccc(C(F)(F)F)c1` stands 6.98; under `Cc1ccc(Cl)cc1NC(=O)Nc1cccc(-c2cn3ccnc3c(NCc3ccncc3)n2)c1`, 6.80.
In the case of `O=C(Nc1cc(Cl)cc(Cl)c1)Nc1cccc(-c2cn3ccnc3c(NCc3ccncc3)n2)c1`, the negative-log IC50 (pIC50) was 5.74.
The same measure, in the same setting: under `COc1cc(OC)c(NC(=O)Nc2cccc(-c3cn4ccnc4c(NCc4ccncc4)n3)c2)cc1Br` stands 6.69; under `CCOc1cc(OCC)c(C(F)(F)F)cc1NC(=O)Nc1cccc(-c2cn3ccnc3c(NCc3ccncc3)n2)c1`, 6.68; under `COc1ccc(Cl)cc1NC(=O)Nc1cccc(-c2cn3ccnc3c(NCc3ccncc3)n2)c1`, 7.11.
The same measure, in the same setting: under `O=C(Nc1cccc(-c2cn3ccnc3c(NCc3cccnc3)n2)c1)Nc1cccc(C(F)(F)F)c1` stands 5.11.
On the same count and under the same terms, under `O=C(Cc1cccc(C(F)(F)F)c1)Nc1cccc(-c2cn3ccnc3c(NCc3ccncc3)n2)c1` stands 5.62; under `COc1cc(OC)c(C(F)(F)F)cc1NC(=O)Nc1cccc(-c2cn3ccnc3c(NCc3ccncc3)n2)c1`, 6.29.
`O=C(Nc1cccc(-c2cn3ccnc3c(NCc3ccncc3)n2)c1)Nc1cccc(Cl)c1Cl` had a pIC50 of 5.24.
The same measure, in the same setting: under `O=C(Nc1cccc(-c2cn3ccnc3c(NCc3ccncc3)n2)c1)Nc1cc(C(F)(F)F)ccc1Cl` stands 7.18; under `COc1cccc(NC(=O)Nc2cccc(-c3cn4ccnc4c(NCc4ccncc4)n3)c2)c1`, 5.77; under `CNc1nc(-c2cccc(NC(=O)Nc3cc(Cl)ccc3OC)c2)cn2ccnc12`, 5.24.
Still for that read-out and setting: under `O=C(Nc1cccc(-c2cn3ccnc3c(NCC3CCNCC3)n2)c1)Nc1cccc(C(F)(F)F)c1` stands 4.30; under `O=C(Nc1cccc(-c2cn3ccnc3c(NCc3ccncc3)n2)c1)Nc1cc(C(F)(F)F)ccc1O`, 7.43; under `O=C(Nc1cccc(-c2cn3ccnc3c(NCc3ccncc3)n2)c1)Nc1ccc(Cl)c(Cl)c1`, 5.60.
The same measure, in the same setting: under `COc1ccc(Cl)cc1NC(=O)Nc1cccc(-c2cn3ccnc3c(N)n2)c1` stands 5.27.
`O=C(Nc1cccc(-c2cn3ccnc3c(NCc3ccncc3)n2)c1)Nc1cc(Cl)c(Cl)cc1Cl` had a pIC50 of 6.29.
`O=C(Nc1ccc(F)cc1)Nc1cccc(-c2cn3ccnc3c(NCc3ccncc3)n2)c1` had a negative logarithm of the IC50 (pIC50) of 5.13.
Regarding `O=C(Nc1cccc(Cl)c1)Nc1cccc(-c2cn3ccnc3c(NCc3ccncc3)n2)c1`, the pIC50 was 6.78.
In the case of `O=C(Nc1cccc(-c2cn3ccnc3c(NCc3ccncc3)n2)c1)Nc1ccccc1Br`, the negative-log IC50 (pIC50) was 5.77.
Still for that read-out and setting: under `Cc1cccc(NC(=O)Nc2cccc(-c3cn4ccnc4c(NCc4ccncc4)n3)c2)c1` stands 6.52; under `O=C(Nc1cccc(-c2cn3ccnc3c(NCCc3ccncc3)n2)c1)Nc1cccc(C(F)(F)F)c1`, 6.80.
Turning to `O=C(NCc1cccc(-c2cn3ccnc3c(NCc3ccncc3)n2)c1)Nc1cccc(C(F)(F)F)c1`, the negative-log IC50 (pIC50) is 5.17.
The same measure, in the same setting: under `CN(Cc1ccncc1)c1nc(-c2cccc(NC(=O)Nc3cccc(C(F)(F)F)c3)c2)cn2ccnc12` stands 7.16; under `O=C(Nc1cccc(-c2cn3ccnc3c(NCc3ccncc3)n2)c1)Nc1ccc(F)c(C(F)(F)F)c1`, 6.07.
On the same count and under the same terms, under `O=S(=O)(Nc1cccc(-c2cn3ccnc3c(NCc3ccncc3)n2)c1)c1cccc(C(F)(F)F)c1` stands 4.30.
Same read-out and setting: under `O=C(Nc1cccc(-c2cn3ccnc3c(NCc3ccncc3)n2)c1)Nc1cc(Cl)ccc1Oc1ccccc1` stands 6.86; under `O=C(Nc1cccc(-c2cn3ccnc3c(NCc3ccncc3)n2)c1)Nc1ccc(Cl)c(C(F)(F)F)c1`, 5.92; under `O=C(Nc1cccc(-c2cn3ccnc3c(NCc3ccc(C(=O)O)cc3)n2)c1)Nc1cccc(C(F)(F)F)c1`, 5.28.
Compound `Cc1ccc(C)c(NC(=O)Nc2cccc(-c3cn4ccnc4c(NCc4ccncc4)n3)c2)c1` gave a pIC50 of 6.03. Compared with the last compound, the pIC50 is 0.75 log units higher.
`O=C(Nc1cccc(-c2cn3ccnc3c(NCc3ccncc3)n2)c1)c1cccc(C(F)(F)F)c1`: the pIC50 was 6.13.
Still for that read-out and setting: under `CSc1cccc(NC(=O)Nc2cccc(-c3cn4ccnc4c(NCc4ccncc4)n3)c2)c1` stands 5.92.
On the same count and under the same terms, under `Cc1ccc(NC(=O)Nc2cccc(-c3cn4ccnc4c(NCc4ccncc4)n3)c2)cc1C(F)(F)F` stands 6.09.
The same measure, in the same setting: under `O=C(Nc1cccc(-c2cn3ccnc3c(NCc3ccncc3)n2)c1)Nc1ccc(Cl)cc1Cl` stands 5.72; under `O=C(Nc1cccc(Br)c1)Nc1cccc(-c2cn3ccnc3c(NCc3ccncc3)n2)c1`, 6.67.

(Values after ChEMBL document CHEMBL1153704, “Imidazo[1,2-a]pyrazine diaryl ureas: inhibitors of the receptor tyrosine kinase EphB4” (Bioorg Med Chem Lett, 2009).)
